What all share (format): cell-based
One data set relates to HT29. Description: XTT cell viability test on colon cancer cell line HT29. Particulars: 72 hours incubation. From the text:
Three further JW-substances (JW-7, JW-8, JW-9) having the general structure according to formula 1b above with acyloxybenzyl-groups of different lengths (from 4 to 17 carbon atoms), but being asymmetrically substituted (i.e. having different groups R^A1 and R^B1), in four different concentrations (1.11, 3.33, 10 and 30 µmol/l) were investigated. As a comparison, 5-FU was used in the same concentrations. The investigated cell lines were the colon cancer cell lines CaCo2 and HT29.
(§1) The experiments consisted of three steps. On the first day, the cells were planted on 96-well-plates and left for growing and adhering for 24 hours. On the second day, the substances were applied in the known concentrations, diluted in the cell-line specific medium. After an incubation period of 72 hours, XTT-colouring (see, e.g., Roehm NW, Rodgers GH, Hatfield SM, Glasebrook AL, 1991, An improved colorimetric assay for cell proliferation and viability utilizing the tetrazolium salt XTT, J Immunol Methods, 142(2):257-65. doi: 10.1016/0022-1759(91)90114-u) was applied and the absorbance was measured after 6 hours. Table 2. Residues RA1 and RB1 of three further 5-Fluorouracil nucleoside triphosphate prodrugs according to the invention, being asymmetrically substituted with residues RA1 and RB1.
(In general: Tetrazolium dyes change colour on reduction, which living cells bring about.)

In the next data set the test system is MDA-MB231. Description: XTT cytotoxicity test on triple-negative breast carcinoma cell line. Particulars: 25, 12.5 and 6.25 µmol/l, compared with 5-FU, 72 hours incubation. An excerpt: In a first approach, six different JW-substances (JW-1, JW-2, JW-3, JW-4, JW-5, JW-6) having the general structure according to formula 1b above with acyloxybenzyl-groups of different lengths (from 8 to 13 carbon atoms) in three different concentrations (25, 12.5 and 6.25 µmol/l) were investigated. As a comparison, 5-FU was used in the same concentrations. The investigated cell line was a triple-negative breast carcinoma (MDA-MB231), see Fig. 2. The treatment of Triple Negative Breast Cancer is not well standardised, however, one of the treatment options includes 5-FU (Yin L, Duan JJ, Bian XW, Yu SC. Triple-negative breast cancer molecular subtyping and treatment progress. Breast Cancer Res. 2020 Jun 9;22(1):61. doi: 10.1186/s13058-020-01296-5. PMID: 32517735; PMCID: PMC7285581). […] Table 1. Residues RA1 and RB1 of six different symmetrically masked 5-Fluorouracil nucleoside triphosphate prodrugs according to the invention.
The experiments consisted of three steps. […] After an incubation period of 72 hours, XTT-colouring (see, e.g., Roehm NW, Rodgers GH, Hatfield SM, Glasebrook AL, 1991, An improved colorimetric assay for cell proliferation and viability utilizing the tetrazolium salt XTT, J Immunol Methods, 142(2):257-65. doi: 10.1016/0022-1759(91)90114-u) was applied and the absorbance was measured after 6 hours. […]

In a further data set the test system is SW620. Description: XTT cytotoxicity test on colon carcinoma cell line, wider concentration range. As to conditions: 30 µmol in triple dilution up to 0.014 µmol. How it is done:
Further investigations were performed in relation these two substances (JW-1 and JW-4). The same procedure as in the first experiments was used, but with a wider concentration range in order to examine the onset of cytotoxicity and the therapeutic range more closely. Thus, JW-1, JW-4 and 5-FU were applied to the cells (colon carcinoma cell line SW620) in the concentrations of 30 µmol in triple dilution up to 0.014 µmol and then examined according to the same scheme. […] A major advantage is, however, their increased therapeutic range. The cytotoxicity threshold is much lower than that of 5-FU. In the case of 5-FU, first cytotoxic effects can be detected between 1 and 3 µmol. In comparison, the threshold for JW-1 and JW-4 is below 1 µmol.
as §1

Consider six molecules from patent EP4151646A1, “5-FLUOROURACIL DERIVATIVES AS PRODRUGS FOR CANCER TREATMENT” (Universität Hamburg, priority 2021, dated 2023).

In general, IC50 refers to the concentration needed to halve the response being measured.

Turning to `O=c1[nH]cc(F)c(=O)[nH]1` [Compound 5-FU, 5-fluorouracil], in the data set on HT29 (Homo sapiens, HT-29, 1.11, 3.33, 10 and 30 µmol/l), the IC50 is ~15 µM.

C4/C17-TriPPPro [JW-07]: the IC50 in the data set on HT29 (1.11, 3.33, 10 and 30 µmol/l) was 4 to 5 µM.

In the data set on HT29 (1.11, 3.33, 10 and 30 µmol/l), C7/C9-TriPPPro [JW-08] registered an IC50 of 2 µM.

Turning to C8-TriPPPro [JW-1], the cytotoxic effects result with MDA-MB231 is reported as “significantly stronger cytotoxicity”. Moreover, in the data set on SW620, the “IC-50 values compared with 5-FU” value was “at least as low as 5-FU” and the “cytotoxicity threshold (first cytotoxic effects)” value is listed as “below 1 µmol”.

Take C10/C12-TriPPPro [JW-09]: in the data set on HT29 (1.11, 3.33, 10 and 30 µmol/l), the IC50 was in the range of 1 to 2 µM.

Turning to C11-TriPPPro [JW-4], in the data set on MDA-MB231, the cytotoxic effects entry is “significantly stronger cytotoxicity”. Moreover, in the data set with SW620, the “IC-50 values compared with 5-FU” value is “at least as low as 5-FU” and the “cytotoxicity threshold (first cytotoxic effects)” value is “below 1 µmol”.
